The values that follow come from patent US20080207731A1, “3-(3-INDOLYL) PROPIONIC ACID CALCIUM SALT AND METHOD OF MAKING 3-(3-INDOLYL) PROPIONIC ACID FREE ACID THEREFROM” (Intellect Neurosciences, Inc., priority 2006, published 2008).

One series relates to cultured neurons. The following applies: background statement; cited from earlier work.
Series [1] can be described thus: solubility in water of 3-IPA salts. It is filed as physicochemical.

Counter-ions that a name gives are not always drawn.

`O=C(O)CCc1c[nH]c2ccccc12` [3-IPA, 3-(3-indolyl)propionic acid]: in the series on cultured neurons, the “protection from toxicity of the Aβ peptide” value was “protect cultured neurons from the toxicity of the Aβ peptide”.

On to `O=C(O)CCc1c[nH]c2ccccc12` [3-IPA calcium, calcium salt of 3-(3-indolyl)propionic acid], for which the solubility in water result in series [1] (compared to the calcium salts of other acids present in the reaction mixture (e.g., acrylic acid or acetic acid)) is “much less soluble in water”. The solubility result in series [1] (compared to the free acid form of 3-IPA) is “low solubility”.
